For series [1], the system named is Her2-positive breast cancer cell line SK-BR-3. Put plainly: In vitro cytotoxicity assay (CellTiter Glo) on SK-BR-3. The series is classed as cell-based. The procedure: SK-BR-3 cell line (ATCC) was cultured and assayed in DMEM (Cellgro) supplemented with 10% (vol/vol) FBS, 100 IU/mL penicillin, and 100 μg/mL streptomycin. Ramos cell line (ATCC) was cultured and assayed in RPMI-1640 media mixed with the same supplements as described above. For cytotoxicity assay, SK-BR-3 cancer cells were plated in flat-bottom 96 well plates at 1000 cells, 90 μL fresh cell media/well, and were incubated overnight at 37° C., 5% CO2. The MMAF compound and protein samples were filtered (0.22 μm, EMD Millipore), serially diluted in PBS buffer as 10× stock solutions, and added in triplicate to cancer cells (10 μL/well). To prevent evaporation, the edges of the plates were filled with 200 μL of bank media. […] The luminescence signals were detected on a Synergy H1 plate reader (BioTek). The viability of the cells treated with PBS buffer was used as a control, the signal of which was normalized as 100%. Ramos cancer cells were plated in flat-bottom 96 well plates at 10000 cells/well, and were directly treated with protein samples and MMAF control compound. The rest of the assay procedure was the same as described above.
In general terms: ATP-based viability assays read luminescence as a measure of living cells.

Series [2] deals with CD19-positive Burkitt's lymphoma cell line Ramos. Put plainly: In vitro cytotoxicity assay (CellTiter Glo) on Ramos. The series is classed as cell-based. As to conditions: 72 hour incubation; mixtures αGCN4-Fab-MMAF:GCN4 fusion at molar ratio 2:1. How it is done:
SK-BR-3 cell line (ATCC) was cultured and assayed in DMEM (Cellgro) supplemented with 10% (vol/vol) FBS, 100 IU/mL penicillin, and 100 μg/mL streptomycin. Ramos cell line (ATCC) was cultured and assayed in RPMI-1640 media mixed with the same supplements as described above. For cytotoxicity assay, SK-BR-3 cancer cells were plated in flat-bottom 96 well plates at 1000 cells, 90 μL fresh cell media/well, and were incubated overnight at 37° C., 5% CO2. The MMAF compound and protein samples were filtered (0.22 μm, EMD Millipore), serially diluted in PBS buffer as 10× stock solutions, and added in triplicate to cancer cells (10 μL/well). To prevent evaporation, the edges of the plates were filled with 200 μL of bank media. The plates were then incubated at 37° C., 5% CO2 for 72 hours, after which the ATP content of each well was measured by CellTiter Glo (Promega). The luminescence signals were detected on a Synergy H1 plate reader (BioTek). The viability of the cells treated with PBS buffer was used as a control, the signal of which was normalized as 100%. Ramos cancer cells were plated in flat-bottom 96 well plates at 10000 cells/well, and were directly treated with protein samples and MMAF control compound. The rest of the assay procedure was the same as described above.

Where two headings read alike, the source gives them in different places. Non-standard residues stand in square brackets, D forms with d. Residues, ends and D or L forms follow the SMILES beside them. Dolaproine = CO[C@@H]([C@@H]1CCCN1)[C@@H](C)C(=O)O; Dil = CC[C@H](C)[C@H](NC)[C@@H](CC(=O)O)OC; NMeV = CN[C@H](C(=O)O)C(C)C

For the compound `CC[C@H](C)[C@@H]([C@@H](CC(=O)N1CCC[C@H]1[C@H](OC)[C@@H](C)C(=O)N[C@@H](Cc1ccccc1)C(=O)O)OC)N(C)C(=O)[C@@H](NC(=O)[C@@H](NC)C(C)C)C(C)C` [MMAF, monomethyl auristatin F] (H-[NMeV]V[Dil][Dolaproine]F-OH), the EC50 in series [1] (72 hour incubation, mixtures αGCN4-Fab-MMAF:GCN4 fusion at molar ratio 2:1, read-out: EC50 (nM) on SK-BR-3) is 50 ± 39 nM; in series [1] (range over Ramos and SK-BR-3, 72 hour incubation, read-out: EC50s, medium cytotoxicity of positive control) it was 50 to 89 nM; in series [2], 89 ± 37 nM.

The values are drawn from patent publication US11492413B2, “Switchable antibody conjugate” (Temple University—Of The Commonwealth System of Higher …, priority 2017, dated 2022).
